Test results as given in patent publication US20230227547A1, “ANTIBODY-PAYLOAD CONJUGATES WITH ENHANCED DELIVERY DOMAIN AND USES THEREOF” (IPROGEN BIOTECH INC., priority 2019, published 2023).

What was measured:
T47D cells = assay: Anti-HER2 mAb delivery efficiency using LL37-derived peptide constructs; format: cell-based, human; conditions: for Delivery efficiency: peptide conjugated to anti-HER2 mAb light chain, 100 nM Ab, Z-GFP (PEP#6, 35-43) or Goat anti-human IgG-AlexaFluor 488 (PEP#6, 47-94) fluorescence microscopy; for delivery enhancement (in words): peptide conjugated to anti-HER2 mAb
Description: LL37 and LL37-derived peptides were produced synthetically with two additional N-terminal glycine residues (e.g. as shown in SEQ ID NO:2 compared to SEQ ID NO: 1) to enable the sortase reaction. The LL37-derived peptides (PEP#35 to #43, SEQ ID NOs: 13-21) were all dissolved at 10 mg/ml in phosphate buffer saline (PBS) at room temperature, sterile-filtered, and stored at -20° C. freezer. PEP#48 (SEQ ID: 74), PEP#49 (SEQ ID No: 75), and PEP#60 (SEQ ID NO: 105) were dissolved in 20% (v/v) acetonitrile in PBS. PEP#47 (SEQ ID NO: 96), PEP#86 (SEQ ID NO: 78), PEP#98 (SEQ ID NO: 79), PEP#99 (SEQ ID NO: 80), PEP#102 (SEQ ID NO: 82), and PEP#104 (SEQ ID NO: 84) were dissolved in DMSO. PEP#50 (SEQ ID No: 76), PEP#51 (SEQ ID No: 97), PEP#55 (SEQ ID No: 77), PEP#58 (SEQ ID No: 103), PEP#59 (SEQ ID No: 104), PEP#61 (SEQ ID No: 106), PEP#62 (SEQ ID No: 107), PEP#63 (SEQ ID No: 108), PEP#64 (SEQ ID No: 109), PEP#66 (SEQ ID No: 110), and PEP#94 (SEQ ID No: 35) were all dissolved in PBS. […] The reaction was incubated inside a 37° C. incubator for 16 hours, and then EDTA (pH 7.5) was added to 10 mM in the reaction mixture to chelate calcium and stop the reaction.
Delivery assay: The following delivery assay method was used on the anti-HER2 mAbs conjugated to the PEP#6, #35, #36, #37, #38, #39, #40, #41, #42, and #43 described in Table 7. […] The plates were then removed from the incubator, and the culturing media was removed from the adherent cells. The adherent cells were washed gently with an equal volume of ice-cold PBS. Then, the PBS wash was replaced 250 µl of fresh PBS for fluorescence microscope imaging.
At the end of incubation, the adherent target cells were washed twice with ice-cold PBS, fixed with 2% (w/v) formaldehyde in PBS at room temperature for 15 minutes, and washed twice with PBS at room temperature. The fixed adherent target cells were then permeabilized with 0.05% (v/v) Tween-20 in PBS at room temperature for 15 minutes. The permeabilized cells were then incubated with 5% (v/v) FBS, 0.05% (v/v) Tween-20 in PBS at 37 degree Celsius incubator for 30 minutes. The secondary antibody, Goat anti-human IgG-AlexaFluor 488, was added to 5 ug/ml in 5% (v/v) FBS, 0.05% (v/v) Tween-20 in PBS, and incubated with the treated target cells at 37 degree Celsius incubator for 30 minutes. After incubation, the labelled cells were washed twice with PBS, and stored in storage buffer [5% (v/v) FBS in PBS] at 4 degree Celsius until fluorescence microscope imaging. The delivery of mAb and mAb-LL37-derived peptides were determined qualitatively by estimating the green fluorescence intensity emitted from the AlexFluor488-labelled secondary antibody bound to mAb or mAb-LL37-derived peptides.

Ramos = assay: Delivery assay, Goat anti-human IgG-AlexaFluor 488 fluorescence microscopy, Ramos; format: cell-based; parameters: key to Delivery efficiency of mAb (i.e., mAb): +++: Strong Alexa Fluor 488 (cyan/green) fluorescent intensity; ++: Medium level of Alexa Fluor 488 (cyan/green) fluorescent intensity; +: Weak, but noticeable Alexa Fluor 488 (cyan/green) fluorescent intensity; -: No signal
Description: Delivery assay. […] The culturing media containing the unbound antibodies were removed, and the MDA-MB-468 cells were washed with PBS. The adherent cells were treated with trypsin at 37 degree C for 1-2 minutes, neutralized in FACS buffer (2% v/v FBS, 2 mM EDTA, 0.05% w/v sodium azide in PBS), and transferred to FACS tubes on ice. The delivery of antibodies to cells was quantitated by measuring the red fluorescence intensity (i.e., PE-Texas Red color channel in the FACS detector) emitted fromZ-RFP bound to antibody. […] At the end of incubation, the adherent target cells were washed twice with ice-cold PBS, fixed with 2% (w/v) formaldehyde in PBS at room temperature for 15 minutes, and washed twice with PBS at room temperature. […] After incubation, the labelled cells were washed twice with PBS, and stored in storage buffer [5% (v/v) FBS in PBS] at 4 degree Celsius until fluorescence microscope imaging. The delivery of mAb and mAb-LL37 were determined qualitatively by estimating the green fluorescence intensity emitted from the AlexFluor488-labelled secondary antibody bound to mAb or mAb-LL37. […] The secondary anti-human IgG-AlexaFluor488 labelled target cells were washed and resuspended in PBS, and transferred to the clear polystyrene 48-well plates for fluorescence microscope imaging.

RT4v6 = assay: Delivery assay, Goat anti-human IgG-AlexaFluor 488 fluorescence microscopy, RT4v6; format: cell-based; parameters: key to Delivery efficiency of mAb (i.e., mAb): +++: Strong Alexa Fluor 488 (cyan/green) fluorescent intensity; ++: Medium level of Alexa Fluor 488 (cyan/green) fluorescent intensity; +: Weak, but noticeable Alexa Fluor 488 (cyan/green) fluorescent intensity; -: No signal; conditions: Target cell RT4v6; for Delivery enhancement: mAb-LL37 vs mAb
Description: (§1) Delivery assay. […] The culturing media containing the unbound antibodies were removed, and the MDA-MB-468 cells were washed with PBS. The adherent cells were treated with trypsin at 37 degree C for 1-2 minutes, neutralized in FACS buffer (2% v/v FBS, 2 mM EDTA, 0.05% w/v sodium azide in PBS), and transferred to FACS tubes on ice. The delivery of antibodies to cells was quantitated by measuring the red fluorescence intensity (i.e., PE-Texas Red color channel in the FACS detector) emitted fromZ-RFP bound to antibody. […] At the end of incubation, the adherent target cells were washed twice with ice-cold PBS, fixed with 2% (w/v) formaldehyde in PBS at room temperature for 15 minutes, and washed twice with PBS at room temperature. The fixed adherent target cells were then permeabilized with 0.05% (v/v) Tween-20 in PBS at room temperature for 15 minutes. The permeabilized cells were then incubated with 5% (v/v) FBS, 0.05% (v/v) Tween-20 in PBS at 37 degree Celsius incubator for 30 minutes. The secondary antibody, Goat anti-human IgG-AlexaFluor 488, was added to 5 ug/ml in 5% (v/v) FBS, 0.05% (v/v) Tween-20 in PBS, and incubated with the treated target cells at 37 degree Celsius incubator for 30 minutes. After incubation, the labelled cells were washed twice with PBS, and stored in storage buffer [5% (v/v) FBS in PBS] at 4 degree Celsius until fluorescence microscope imaging. The delivery of mAb and mAb-LL37 were determined qualitatively by estimating the green fluorescence intensity emitted from the AlexFluor488-labelled secondary antibody bound to mAb or mAb-LL37. […] However, Ramos [NT] […] The secondary anti-human IgG-AlexaFluor488 labelled target cells were washed and resuspended in PBS, and transferred to the clear polystyrene 48-well plates for fluorescence microscope imaging.

OVCAR3 = assay: Delivery assay, Goat anti-human IgG-AlexaFluor 488 fluorescence microscopy, OVCAR3; format: cell-based; parameters: key to Delivery efficiency of mAb (i.e., mAb): +++: Strong Alexa Fluor 488 (cyan/green) fluorescent intensity; ++: Medium level of Alexa Fluor 488 (cyan/green) fluorescent intensity; +: Weak, but noticeable Alexa Fluor 488 (cyan/green) fluorescent intensity; -: No signal; conditions: Target cell OVCAR3; for Delivery enhancement: mAb-LL37 vs mAb
Description: as §1

[1] = test system: CD3-positive Jurkat cells; assay: Delivery assay, Z-RFP FACS, Jurkat cells; format: cell-based, human; conditions: 1 nM, 10 nM, 100 nM; 30 minutes
Description: For FIG. 30 Panel E, Foralumab-LL37 was made from Foralumab (SEQ ID NOs: 129 and 130) in a sortase-catalyzed reaction to GG-LL37 peptide (SEQ ID NO: 2), and purified on Protein A chromatography. For cell delivery assay, Foralumab/Foralumab-LL37 and equimolar number of Z-RFP were added to Jurkat cells at described final concentration (i.e, 1 nM, 10 nM, and 100 nM) and incubated for 30 minutes. The liquid suspension culture was gently spun in a microcentrifuge at 2000 rpm for 4 minutes, and the clear supernatant was removed, and the cell pellet was washed in PBS and resuspended in FACS buffer (1XPBS, 2% FBS, 1 mM EDTA, 0.02% sodium azide) for analysis by FACS (Texas Red channel).

KRIVQRIKDFL [PEP#60]
Delivery efficiency (T47D cells): +

GSIGKEFKRIVQRIKDFLR [PEP#66]
Delivery efficiency (T47D cells): ++ (Solid enhancement in delivery, but at lower efficiency than LL37)

Rituximab [Anti-CD20, Rituximab]
Delivery efficiency of mAb (i.e., mAb) (Ramos; Target cell Ramos (suspension culture)): ++
Delivery enhancement (Ramos; Target cell Ramos, mAb-LL37 vs mAb): YES

FRKSKEKIGKFFKRIVQRIFDFLRNLVMMWLL [PEP#48]
Delivery efficiency (T47D cells): +++ (Same as LL37)

LLGDFFRKSKEKIGKEFKRIVQRIKDFLRNLVPRTESC [PEP#94]
Delivery efficiency (T47D cells): +++ (Same as LL37)

Vofatamab [Anti-FGFR3, Vofatamab]
Delivery efficiency of mAb (i.e., mAb) (RT4v6; 100 nM, 3 hours): +
Delivery enhancement (RT4v6): YES

LLGDFFRASKEKIGKEFAAIVQAIKDFLANLVPATES [PEP#50]
delivery enhancement (in words) (T47D cells): decrease in, but not abrogation of, delivery enhancement
Delivery efficiency (T47D cells): +

Lifastuzumab [Anti-NaPi2b, Lifastuzumab]
Delivery efficiency of mAb (i.e., mAb) (OVCAR3; 100 nM, 3 hours): +
Delivery enhancement (OVCAR3): YES
Delivery enhancement (OVCAR3; listed as lifastuzumab): significantly increases the delivery
Delivery enhancement (RT4v6): significantly increases the delivery

LLGDFFRQSKEKIGKEFQQIVQQIKDFLQNLVPQTES [PEP#49]
delivery enhancement (in words) (T47D cells): abolished the antibody delivery enhancement

Foralumab-LL37
targeted delivery (in words) [1]: more efficient than anti-CD3e mAb (i.e., Foralumab) at targeted delivery

MMWLL [PEP#47, reference compound]
delivery enhancement (in words) (T47D cells): confirmed to not enhance antibody delivery to target cells alone
